The experiment concerns the target N-terminally GST-tagged HCK (75-526) (Homo sapiens (Human), UniProt P08631). Put plainly: HCK Kinase Assay (ProFluor Src-Family Kinase Assay). The experiment is classed as biochemical. The essentials: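 ProFluor Src-family format: after the kinase reaction, protease solution was added for 60 min at room temperature (22-25° C), then stabilizer.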
Setting [1] is: HCK inhibitory activity, 50 μM ATP, read-out: HCK Activity.

SMILES strings stand for the structures. Read-outs that look alike come from different tables or passages of the source. Some results are limits rather than exact numbers.

These results are taken from patent US11963960B2 (Flash Therapeutics, LLC, priority 2020, dated 2024).

Chain of N-terminally GST-tagged HCK (75-526) (P08631 75-526): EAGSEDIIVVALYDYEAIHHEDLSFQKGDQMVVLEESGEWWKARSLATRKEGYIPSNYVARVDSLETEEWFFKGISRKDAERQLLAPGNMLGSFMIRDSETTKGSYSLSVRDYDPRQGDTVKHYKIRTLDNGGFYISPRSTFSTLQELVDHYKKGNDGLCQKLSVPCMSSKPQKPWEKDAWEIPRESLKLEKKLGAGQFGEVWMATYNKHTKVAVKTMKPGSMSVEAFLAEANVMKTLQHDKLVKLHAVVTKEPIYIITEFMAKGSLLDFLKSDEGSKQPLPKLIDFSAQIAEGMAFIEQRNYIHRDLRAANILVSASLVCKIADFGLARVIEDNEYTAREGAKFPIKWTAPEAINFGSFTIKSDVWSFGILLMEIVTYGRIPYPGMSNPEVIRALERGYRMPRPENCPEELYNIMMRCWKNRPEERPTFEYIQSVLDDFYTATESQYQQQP

`[2H]C([2H])([2H])N1CCN([C@H]2CC[C@H](n3cc(-c4ccc(Oc5ccccc5)cc4)c4c(N)ncnc43)CC2)CC1` (single isomer, unassigned) [Example 3, 7-((trans)-4-(4-(trideuteriomethyl)piperazin-1-yl)cyclohexyl)-5-(4-phenoxyphenyl)-7H-pyrrolo[2,3-d]pyrimidin-4-amine] gave an IC50 of less than 50 nM.

Take `Nc1ncnc2c1c(-c1ccc(Oc3ccccc3)cc1)cn2[C@H]1CC[C@@H](N2CCS(=O)(=O)CC2)CC1` [Example 66, 4-((cis)-4-(4-amino-5-(4-phenoxyphenyl)-7H-pyrrolo[2,3-d]pyrimidin-7-yl)cyclohexyl)thiomorpholine 1,1-dioxide]: the IC50 under setting [1] lay in the range of 50 to 250 nM.

In the case of `C[C@H]1CN([C@H]2CC[C@@H](c3cc(-c4ccc(Oc5ccccc5)cc4)c4c(N)ncnn43)CC2)CCN1` [Example 170, 7-((cis)-4-((S)-3-Methylpiperazin-1-yl)cyclohexyl)-5-(4-phenoxyphenyl)pyrrolo[2,1-f][1,2,4]triazin-4-amine], the IC50 under setting [1] lay in the range of 50 to 250 nM.

In the case of `CN1CCN(CC2(O)CCC(n3cc(-c4ccc(Oc5ccccc5)cc4)c4c(N)ncnc43)CC2)CC1` (stereo not drawn) [Example 100, 4-(4-Amino-5-(4-phenoxyphenyl)-7H-pyrrolo[2,3-d]pyrimidin-7-yl)-1-((4-methylpiperazin-1-yl)methyl)cyclohexanol], the IC50 under setting [1] fell in the range of 50 to 250 nM.

On to `Nc1ncnc2c1c(-c1ccc(Oc3ccccc3)cc1)cn2[C@H]1CC[C@@H](N2CCC(S(N)(=O)=O)CC2)CC1` [Example 70, 1-((cis)-4-(4-amino-5-(4-phenoxyphenyl)-7H-pyrrolo[2,3-d]pyrimidin-7-yl)cyclohexyl)piperidine-4-sulfonamide], for which the IC50 under setting [1] is 50 to 250 nM.

Regarding `CC(C)c1cc(NC(=O)Nc2ccc(-c3cn([C@H]4CC[C@H](N5CCN(C)CC5)CC4)c4ncnc(N)c34)cc2)no1` [Example 119, 1-(4-(4-amino-7-((trans)-4-(4-methylpiperazin-1-yl)cyclohexyl)-7H-pyrrolo[2,3-d]pyrimidin-5-yl)phenyl)-3-(5-isopropylisoxazol-3-yl)urea], the IC50 under setting [1] was less than 50 nM.

With `CN1CCN([C@H]2CC[C@H](n3c(Br)c(-c4ccc(Oc5ccccc5)cc4)c4c(N)ncnc43)CC2)CC1` [Example 86, 6-Bromo-7-((trans)-4-(4-methylpiperazin-1-yl)cyclohexyl)-5-(4-phenoxyphenyl)-7H-pyrrolo[2,3-d]pyrimidin-4-amine], the IC50 under setting [1] is 50 to 250 nM.

Regarding `Nc1ncnc2c1c(-c1ccc(Oc3ccccc3)cc1)cn2C1CCC(O)(Cn2cnnn2)CC1` (stereo not drawn) [Example 102, 1-((1H-Tetrazol-1-yl)methyl)-4-(4-amino-5-(4-phenoxyphenyl)-7H-pyrrolo[2,3-d]pyrimidin-7-yl)cyclohexanol], the IC50 under setting [1] is less than 50 nM.

Turning to `CN1CC2(C1)CN([C@H]1CC[C@@H](n3cc(-c4ccc(Oc5ccccc5)cc4)c4c(N)ncnc43)CC1)C2` [Example 80, 7-((cis)-4-(6-methyl-2,6-diazaspiro[3.3]heptan-2-yl)cyclohexyl)-5-(4-phenoxyphenyl)-7H-pyrrolo[2,3-d]pyrimidin-4-amine], under setting [1], the IC50 is 250 to 10000 nM.

For `C[C@H]1CN([C@H]2CC[C@@H](n3cc(-c4ccc(Oc5ccccc5)cc4)c4c(N)ncnc43)CC2)CCN1` [Example 20, 7-((cis)-4-((S)-3-methylpiperazin-1-yl)cyclohexyl)-5-(4-phenoxyphenyl)-7H-pyrrolo [2,3-d]pyrimidin-4-amine], under setting [1], the IC50 is less than 50 nM.

As to `CN1CCCC(N2CCC(n3cc(-c4ccc(Oc5ccccc5)cc4)c4c(N)ncnc43)CC2)C1` (stereo not drawn) [Example 160, 7-(1′-methyl-[1,3′-bipiperidin]-4-yl)-5-(4-phenoxyphenyl)-7H-pyrrolo [2,3-d] pyrimidin-4-amine], the IC50 under setting [1] lay in the range of 50 to 250 nM.

Take `CC(C)N1CCC(N2CCC(n3nc(-c4ccc(Oc5ccccc5)cc4F)c4c(N)ncnc43)CC2)CC1` [Example 153, 3-(2-fluoro-4-phenoxyphenyl)-1-(1′-isopropyl-[1,4′-bipiperidin]-4-yl)-1H-pyrazolo[3,4-d]pyrimidin-4-amine]: under setting [1], the IC50 was less than 50 nM.

Consider `Nc1ncnc2c1c(-c1ccc(Oc3ccccc3)cc1)cn2[C@H]1CC[C@@H](N2CCN(N)CC2)CC1` [Example 39, 7-((cis)-4-(4-aminopiperazin-1-yl)cyclohexyl)-5-(4-phenoxyphenyl)-7H-pyrrolo[2,3-d]pyrimidin-4-amine], for which the IC50 under setting [1] is less than 50 nM.

For the molecule `CN(C)[C@@H]1CCCN([C@H]2CC[C@H](n3cc(-c4ccc(Oc5ccccc5)cc4)c4c(N)ncnc43)CC2)C1` [Example 62, 7-((trans)-4-((R)-3-(dimethylamino)piperidin-1-yl)cyclohexyl)-5-(4-phenoxyphenyl)-7H-pyrrolo[2,3-d]pyrimidin-4-amine], the IC50 under setting [1] is less than 50 nM.

Turning to `CN1CCN([C@H]2CC[C@@H](c3nc(-c4ccc(Oc5ccccc5)cc4F)c4c(N)ncnn43)CC2)CC1` [Example 164, 5-(2-Fluoro-4-phenoxyphenyl)-7-((cis)-4-(4-methylpiperazin-1-yl)cyclohexyl)imidazo[5,1-f][1,2,4]triazin-4-amine], the IC50 under setting [1] was in the range of 50 to 250 nM.

Consider `CN1CCN([C@H]2CC[C@H](n3cc(-c4ccc(Oc5cccnn5)cc4)c4c(N)ncnc43)CC2)CC1` [Example 116, 7-((trans)-4-(4-methylpiperazin-1-yl)cyclohexyl)-5-(4-(pyridazin-3-yloxy)phenyl)-7H-pyrrolo[2,3-d]pyrimidin-4-amine], for which the IC50 under setting [1] is less than 50 nM.

As for `Nc1ncnc2c1c(-c1ccc(Oc3ccccc3)cc1)cn2[C@H]1CC[C@H](N2CCSCC2)CC1` [Example 63, 5-(4-phenoxyphenyl)-7-((trans)-4-thiomorpholinocyclohexyl)-7H-pyrrolo[2,3-d]pyrimidin-4-amine], under setting [1], the IC50 was in the range of 250 to 10000 nM.

In the case of `CC1CN([C@H]2CC[C@H](n3cc(-c4ccc(Oc5ccccc5)cc4)c4c(N)ncnc43)CC2)CCN1C` (stereo partly drawn) [Example 22, 7-((trans)-4-(3,4-dimethylpiperazin-1-yl)cyclohexyl)-5-(4-phenoxyphenyl)-7H-pyrrolo[2,3-d]pyrimidin-4-amine], the IC50 under setting [1] was less than 50 nM.

`Nc1ncnc2c1c(-c1ccc(Oc3ccccc3)cc1)cn2[C@H]1CC[C@H](N2CCC[C@H](N)C2)CC1` [Example 56, 7-((trans)-4-((S)-3-aminopiperidin-1-yl)cyclohexyl)-5-(4-phenoxyphenyl)-7H-pyrrolo[2,3-d]pyrimidin-4-amine]: under setting [1], the IC50 was less than 50 nM.

For `CN(C)[C@H]1CN([C@H]2CC[C@@H](n3cc(-c4ccc(Oc5ccccc5)cc4)c4c(N)ncnc43)CC2)C[C@H]1O` [Example 72, (3R,4S)-1-((cis)-4-(4-amino-5-(4-phenoxyphenyl)-7H-pyrrolo[2,3-d]pyrimidin-7-yl)cyclohexyl)-4-(dimethylamino)pyrrolidin-3-ol], the IC50 under setting [1] was less than 50 nM.

Turning to `CCOC(=O)C1CC12CCC(n1cc(-c3ccc(Oc4ccccc4)cc3)c3c(N)ncnc31)CC2` (stereo not drawn) [Example 99, Ethyl 6-(4-amino-5-(4-phenoxyphenyl)-7H-pyrrolo[2,3-d]pyrimidin-7-yl)spiro[2.5]octane-1-carboxylate], under setting [1], the IC50 was less than 50 nM.

With `[2H]c1c([2H])c([2H])c(Oc2ccc(-c3cn([C@H]4CC[C@H](N5CCN[C@@H](C)C5)CC4)c4ncnc(N)c34)cc2)c([2H])c1[2H]` [Example 125, 7-((trans)-4-((S)-3-methylpiperazin-1-yl)cyclohexyl)-5-(4-pentadeuteriophenoxyphenyl)-7H-pyrrolo[2,3-d]pyrimidin-4-amine], the IC50 under setting [1] is less than 50 nM.

Regarding `Nc1ncnc2c1c(-c1ccc(Oc3ccccc3)cc1)cn2[C@H]1CC[C@H](N2CCC(N)CC2)CC1` [Example 52, 7-((trans)-4-(4-aminopiperidin-1-yl)cyclohexyl)-5-(4-phenoxyphenyl)-7H-pyrrolo[2,3-d]pyrimidin-4-amine], the IC50 under setting [1] was less than 50 nM.

`Nc1ncnc2c1c(-c1ccc(Oc3ccccc3)cc1)cn2C1CCN(C2CCCC(N)C2)CC1` (stereo not drawn) [Example 159, 7-(1-(3-aminocyclohexyl)piperidin-4-yl)-5-(4-phenoxyphenyl)-7H-pyrrolo[2,3-d]pyrimidin-4-amine]: the IC50 under setting [1] was less than 50 nM.

`CN1CCN([C@H]2CC[C@H](n3cc(-c4ccc(C(=O)c5ccccc5)cc4)c4c(N)ncnc43)CC2)CC1` [Example 113, (4-(4-amino-7-((trans)-4-(4-methylpiperazin-1-yl)cyclohexyl)-7H-pyrrolo[2,3-d]pyrimidin-5-yl)phenyl)(phenyl)methanone]: under setting [1], the IC50 is less than 50 nM.

With `CN1CCN([C@H]2CC[C@@H](c3nc(-c4ccc(Oc5ccccc5)cc4)c4c(N)nccn43)CC2)CC1` [Example 174, 3-((cis)-4-(4-Methylpiperazin-1-yl)cyclohexyl)-1-(4-phenoxyphenyl)imidazo[1,5-a]pyrazin-8-amine], the IC50 under setting [1] is 250 to 10000 nM.

Consider `C[C@H]1CC(N2CCC(n3cc(-c4ccc(Oc5ccccc5)cc4)c4c(N)ncnc43)CC2)CCN1` (stereo partly drawn) [Example 154, 7-((2′S)-2′-methyl-[1,4′-bipiperidin]-4-yl)-5-(4-phenoxyphenyl)-7H-pyrrolo[2,3-d]pyrimidin-4-amine], for which the IC50 under setting [1] was less than 50 nM.

For `C[C@@H]1CN([C@H]2CC[C@@H](n3cc(-c4ccc(Oc5ccccc5)cc4)c4c(N)ncnc43)CC2)C[C@H](C)N1` [Example 26, 7-((cis)-4-((3S,5R)-3,5-dimethylpiperazin-1-yl)cyclohexyl)-5-(4-phenoxyphenyl)-7H-pyrrolo[2,3-d]pyrimidin-4-amine], the IC50 under setting [1] is less than 50 nM.

Consider `CN1CCN([C@H]2CC[C@H](c3cn(-c4ccc(Oc5ccccc5)cc4)c4c(N)ncnc43)CC2)CC1` [Example 177, 7-((trans)-4-(4-methylpiperazin-1-yl)cyclohexyl)-5-(4-phenoxyphenyl)-5H-pyrrolo[3,2-d]pyrimidin-4-amine], for which the IC50 under setting [1] is less than 50 nM.

On to `C[C@@H]1CN([C@H]2CC[C@@H](n3cc(-c4ccc(Oc5ccccc5)cc4)c4c(N)ncnc43)CC2)CCN1` [Example 13, 7-((cis)-4-((R)-3-methylpiperazin-1-yl)cyclohexyl)-5-(4-phenoxyphenyl)-7H-pyrrolo[2,3-d]pyrimidin-4-amine], for which the IC50 under setting [1] is less than 50 nM.
